Data: publication PMC5635289, “Differential Effects of Angelicin Analogues on NF-κB Activity and IL-8 Gene Expression in Cystic Fibrosis IB3-1 Cells” (Mediators of Inflammation, 2017)

Assays:
IB3-1 cells = assay: Cell proliferation assay on IB3-1 cells; type: cell-based; conditions: Homo sapiens, cell number/ml after 48 h of treatment
Experimental: Monolayers of 60% confluent IB3-1 cells were seeded in 24- or 12-well plates in LHC-8 medium in the presence of 5% FBS. After 24 h, TMA derivatives were added at serial dilutions and incubated for further 2-3 days. The effects of compounds (TMA derivatives) on the cell proliferation were analyzed as elsewhere described. A first analysis was performed with serial dilutions to obtain 50 μM, 200 μM, and 800 μM solutions. In order to determine IC50 values, the following concentrations were used 12.5, 25, 50, 100, 200, and 800 μM. In order to prepare the cells for counting, they were washed with PBS 1X and detached with trypsin/EDTA. Cells were suspended in physiological solution and counted with a Z2 Coulter Counter (Coulter Electronics, Hialeah, FL, USA). The cell number/ml was determined as IC50 after 2 days of culture, when untreated cells are in log phase of cell growth.
In order to obtain preliminary information on the biological properties of TMA derivatives, their effects on cell growth were examined on IB3-1 cell line, excellent biological model to study new potential anti-inflammatory molecules. The use of this cell line to study the expression of proinflammatory molecules under a variety of stimuli is well established. Monolayers of 60% confluent IB3-1 cells were seeded in 12-well plate in LHC-8 medium with 5% FBS. After 24 h, compounds were added at different concentrations and the cell number/ml was determined after further 48 h of culture.

NF-κB p50 = molecular target: T1, NF-κB p50 (Homo sapiens, UniProt P19838); assay: EMSA, inhibition of NF-κB/DNA interactions; type: binding; conditions: NF-κB p50 and 32P-labeled NF-κB oligonucleotide, MIC = minimal inhibitory concentration, 12.5 μM was the lowest concentration used
T1 construct: This assay was performed using purified NF-κB p50; purchased Promega
T1 sequence (P19838 1-433 limits assumed): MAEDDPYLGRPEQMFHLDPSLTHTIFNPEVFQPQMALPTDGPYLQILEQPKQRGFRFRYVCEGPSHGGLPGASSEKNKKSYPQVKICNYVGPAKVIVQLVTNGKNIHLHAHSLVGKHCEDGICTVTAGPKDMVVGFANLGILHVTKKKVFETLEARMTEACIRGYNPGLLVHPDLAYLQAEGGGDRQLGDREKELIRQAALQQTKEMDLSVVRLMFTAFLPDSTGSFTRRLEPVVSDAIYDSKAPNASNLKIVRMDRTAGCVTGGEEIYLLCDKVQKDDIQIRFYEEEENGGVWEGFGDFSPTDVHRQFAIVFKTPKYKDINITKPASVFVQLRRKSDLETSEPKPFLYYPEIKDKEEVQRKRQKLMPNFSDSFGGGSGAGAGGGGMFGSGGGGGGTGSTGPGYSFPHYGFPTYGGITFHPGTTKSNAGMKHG
Experimental: Electrophoretic mobility shift assays were performed using double-stranded ^32P-labeled oligonucleotides as target DNA. Binding reactions were set up as previously described in binding buffer (10% glycerol, 0.05% NP-40, 10 mM Tris-HCl pH 7.5, 50 mM NaCl, 0.5 mM DTT, and 10 mM MgCl2), in the presence of 0.1 μl/20 μl of NF-κB p50 (50 gsu) (Promega, Madison, WI, USA) and 0.25 ng of labeled oligonucleotide, in a total volume of 20 μl. After 30 min binding at room temperature, samples were electrophoresed at constant voltage (200 V for 30 min) through a low ionic strength (0.25 TBE buffer) (1 TBE/40.089 M Tris-borate, 0.002 M EDTA) on 6% polyacrylamide gels until the tracking dye (bromophenol blue) reached the bottom of a 16 cm slab. Gels were dried and exposed for autoradiography with intensifying screens at […]. In these experiments, DNA/protein complexes migrate through the gel with slower efficiency. In studies on the inhibitors of protein/DNA interactions, addition of the reagents was as follows: (i) nuclear factors, (ii) active principles, (iii) binding buffer, and (iv) labeled oligonucleotides mimicking the binding sites for TF to be modulated. The nucleotide sequence of double-stranded target DNA utilized in these experiments was 5′-CGC TGG GGA CTT TCC ACG G-3′ (sense strand, NF-κB). The synthetic oligonucleotides utilized in this study were purchased from Sigma Genosys (Sigma Genosys, Cambs, UK). To calculate the effective concentrations, three different autoradiograms obtained from different time exposures were scanned and compared to control EMSA performed without addition of angelicin analogues (two independent experiments were performed).
The effects of TMA derivatives on NF-κB- (nuclear factor-kappaB-) mediated induction of proinflammatory genes was verified first in vitro by electrophoretic mobility shift assay (EMSA) with the aim to verify and quantify the possible inhibition of NF-κB/DNA interactions. This assay was performed using purified NF-κB p50 and ^32P-labeled target NF-κB double-stranded oligonucleotide mimicking the NF-κB consensus sequence present within the IL-8 gene promoter.

IL-8 mRNA = assay: RT-qPCR quantification of IL-8 mRNA in TNF-α-induced IB3-1 cells; type: cell-based, human; conditions: for inhibition at 1 µM / inhibition at 10 µM: Homo sapiens, IB3-1, 24 h, TNF-α-induced IB3-1 cells, RT-qPCR, na = not active at the used concentrations; for inhibition at 1 µM: 1 μM compound; for inhibition at 10 µM: 10 μM compound; for Inhibition of IL-8 expression (range given): IB3-1 cells, low concentrations (1–10 μM), concentration not specified per value
Experimental: Monolayers of 60% confluent IB3-1 cells were seeded in 6- or 12-well plates in LHC-8 medium in the presence of 5% FBS. After 24 h, pure derivatives were added, 5 h before stimulation with TNF-α 80 ng/ml (ORF Genetics, Kopavogur, Iceland), and incubated for a further 24 h. Total RNA was extracted using TRIzol Reagent (Sigma-Aldrich, St. Louis, MO) following the manufacturer's instructions. Reverse transcription (RT) was performed using Reverse Transcription System kit (Promega, Madison, WI): 1 μg of total RNA was reverse transcribed in the presence of 5 mM MgCl2, 1X reverse transcription buffer (10 mM Tris-HCl, 50 mM KCl, and 0.1% Triton X-100), 1 mM each dNTPs, 20 U recombinant Rnasin Ribonuclease Inhibitor, 15 U AMV Reverse Transcriptase, and 0.5 μg oligo(dT)15 primers in a total volume of 20 μl for 10 min at 70°C and 60 min at 42°C. The resulting cDNA was quantified by relative quantitative real-time PCR (real-time qPCR). For real-time qPCR, 1 μl of cDNA was used for each SYBR Green reaction to quantify the relative expression of IL-8. Each 25 μl of total reaction volume contained 1 μl of cDNA, 10 pmol of primers, 1 iQTM SYBR Green Supermix (Bio-Rad Laboratories Inc., Hercules, CA). Real-time PCRs were performed for a total of 40 cycles (denaturation, 95°C for 10 s; annealing, 68°C for 30 s for IL-8, 65°C for 30 s for IL-6; elongation, 72°C for 60 s) using an iCycler IQ5 (Bio-Rad Laboratories Inc., Hercules, CA). Primer sequences were as follows: IL-8 forward: 5′-GTGCAGTTTTGCCAAGGAGT-3′ and IL-8 reverse: 5′-TTATGAATTCTCAGCCCTCTTCAAAAACTTCTC-3′. The relative proportions of each amplified template were determined utilizing the threshold cycle (CT) value for each performed PCR. The DDCt method was used to compare gene expression data. Each sample was quantified in duplicate. Changes in mRNA expression level were calculated following normalization with the GAPDH calibrator gene (housekeeping gene) and expressed as fold change over untreated samples [24]. Duplicates of negative controls (no template cDNA) were also run with every experimental plate to assess specificity and indicate potential contamination.
With the aim to study the effective anti-inflammatory properties of these new psoralen derivatives, we decided to further characterize the TMA derivatives for their potential activities on the expression of IL-8 gene, known to be involved in the lung inflammatory process in CF. […] More specifically, we were first interested in identifying compounds with low antiproliferative activity, but effective in downmodulating inflammatory gene expression without achieving a full suppression of these genes. We therefore employed IB3-1 cystic fibrosis cells, incubated for 5 h with two concentrations (1 μM and 10 μM) of selected compounds, and then treated with TNF-α ([…]). In the IB3-1 cystic fibrosis cellular model, NF-κB-dependent genes, including the gene encoding for the proinflammatory protein IL-8, generally are activated following infection with P. aeruginosa or treatment with TNF-α or IL-1β [26, 28, 31]. This feature is very important in the pathophysiology of CF, since several clinical complications are caused by exacerbation of this inflammatory response. After 1 day of incubation, cellular RNA was isolated for RT-qPCR analysis. All the TMA analogues found to be active in inhibiting NF-κB/DNA interactions were analyzed for their effects on inhibition of TNF-α-induced accumulation of IL-8 mRNA.

Compound | IC50 (IB3-1 cells) [µM] | Inhibition of NF-κB/DNA complex (MIC) (NF-κB p50) | inhibition at 1 µM (IL-8 mRNA) [%] | inhibition at 10 µM (IL-8 mRNA) [%] | Inhibition of IL-8 expression (range given) (IL-8 mRNA)
CC(=O)OCc1oc2c(C)cc3c(C)cc(=O)oc3c2c1C [Compound 2] | > 800 | > 100 µM | – | – | –
COCc1oc2c(C)cc3c(C)cc(=O)oc3c2c1C [Compound 3] | > 800 | > 100 µM | – | – | –
Cc1cc(=O)oc2c1cc(C)c1occc12 [Compound 4] | > 800 | 75 µM | – | – | –
Cc1cc(=O)oc2c1cc(C)c1occ(CBr)c12 [Compound 5] | 486 | 12.5 to 25 µM | 33 | 31 | –
Cc1cc2ccc(=O)oc2c2c(C)coc12 [Compound 6] | 454 | > 100 µM | – | – | –
Cc1cc2c(C(F)(F)F)cc(=O)oc2c2c(C)coc12 [Compound 7] | > 800 | > 100 µM | – | – | –
Cc1cc2c(CO)cc(=O)oc2c2c(C)coc12 [Compound 8] | 398 | 25 to 50 µM | 51 | 52 | 52–83%
COCc1cc(=O)oc2c1cc(C)c1occ(C)c12 [Compound 9] | > 800 | 12.5 µM | – | – | –
Cc1cc2c(CBr)cc(=O)oc2c2c(C)coc12 [Compound 10] | < 50 | < 12.5 µM | – | – | –
Cc1cc(=O)oc2c1ccc1occ(C)c12 [Compound 11] | 182 | > 100 µM | – | – | –
Cc1cc(=O)oc2c1cc(Cl)c1occ(C)c12 [Compound 12] | > 800 | 12.5 µM | 0 | – | –
Cc1cc(=O)oc2c1cc(Br)c1occ(C)c12 [Compound 13] | > 800 | 12.5 µM | – | – | –
Cc1cc(=O)oc2c1cc(C)c1scc(C)c12 [Compound 14] | > 800 | > 100 µM | – | – | –
COCc1cc(=O)oc2c1cc(C)c1scc(C)c12 [Compound 15] | > 800 | > 100 µM | – | – | –
O=c1cc(CO)c2ccc3sccc3c2o1 [Compound 16] | > 800 | 25 to 50 µM | 18 | 21 | –
Cc1cc(=O)[nH]c2c1cc(C)c1occ(C)c12 [Compound 17] | 193 | > 100 µM | – | – | –
Cc1cc(=O)[nH]c2c1cc(C)c1oc(CO)c(C)c12 [Compound 18] | > 800 | – | – | – | –
Cc1cc(=O)n(C)c2c1cc(C)c1occ(C)c12 [Compound 19] | 131 | – | – | – | –
Cc1cc(=O)oc2c3c(ccc12)OC(C)C3 (stereo not drawn) [Compound 20] | 154 | – | – | – | –
COC1Cc2c(ccc3c(C)cc(=O)oc23)O1 (stereo not drawn) [Compound 21] | 678 | – | – | – | –
Cc1cc(=O)oc2c3c(ccc12)OC(CBr)C3 (stereo not drawn) [Compound 22] | 180 | > 100 µM | – | – | –
Cc1oc2c(C)cc3c(C)cc(=O)oc3c2c1CO [Compound 23] | 452 | – | 3 | 11 | –
Cc1cc2c(CO)cc(=O)oc2c2cc(CO)oc12 [Compound 24] | 197 | > 100 µM | – | – | –
Cc1cc2c(o1)c(C)cc1c(CO)cc(=O)oc12 [Compound 25] | 551 | 25 to 50 µM | – | – | –
Cc1cc(=O)oc2c1ccc1oc(CN)cc12 [Compound 26] | 90.8 | 50 to 100 µM | 55 | 83 | 52–83%
Cc1oc2c(cc(C)c3occ(C)c32)c(=O)c1C [Compound 27] | > 800 | <12.5 (^∗) μM | 16 | – | –
Cc1c(C)c2cc(C)c3occc3c2oc1=O [Compound 28] | > 800 | 12.5 to 25 µM | 21 | 36 | –
Cc1cc(=O)oc2c1cc(C)c1[nH]nnc12 [Compound 31] | > 800 | 25 µM | – | – | –
Cc1cc2c(CO)cc(=O)oc2cc1O [Compound 37] | > 800 | 12.5 to 25 µM | – | – | –
